# Like-named read-outs stand apart in the source and are kept apart here.
# Legend:
# Format in all cases: biochemical
# [1] = biological target: T1, FGFR4 (Homo sapiens, UniProt P22455); assay: FGFR4 kinase activity inhibition assay (LanthaScreen TR-FRET)
# T1 construct: FGFR4's cytoplasmic domain [460-802 (terminal) amino acids]; purchased Carna 08-136
# In short: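 GST-tagged cytoplasmic domains (FGFR2 aa 399-821; FGFR4 aa 460-802) were preincubated 10 min at 23 °C with compound (top 1 µM, threefold dilutions). Then 28 nM fluorescein-poly GT and 28 µM ATP were added for 30 min at 23 °C in HEPES pH 7.5 buffer. Tb-PY20 TR-FRET 520/495 ratio gave % inhibition versus DMSO and no-enzyme controls.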
# [2] = biological target: T2, FGFR3 (Homo sapiens, UniProt P22607); assay: FGFR3 kinase activity inhibition assay (LanthaScreen TR-FRET); conditions: for Selectivity (X) FGFR1/FGFR3: ratio of IC50 FGFR1/FGFR3, selectivity towards FGFR3; for Selectivity (X) FGFR2/FGFR3: ratio of IC50 FGFR2/FGFR3, selectivity towards FGFR3; for Selectivity (X) FGFR4/FGFR3: ratio of IC50 FGFR4/FGFR3, selectivity towards FGFR3
# T2 construct: FGFR3's cytoplasmic domain [436-806 (terminal) amino acids]; purchased Carna 08-135
# T2 sequence (P22607 436-806): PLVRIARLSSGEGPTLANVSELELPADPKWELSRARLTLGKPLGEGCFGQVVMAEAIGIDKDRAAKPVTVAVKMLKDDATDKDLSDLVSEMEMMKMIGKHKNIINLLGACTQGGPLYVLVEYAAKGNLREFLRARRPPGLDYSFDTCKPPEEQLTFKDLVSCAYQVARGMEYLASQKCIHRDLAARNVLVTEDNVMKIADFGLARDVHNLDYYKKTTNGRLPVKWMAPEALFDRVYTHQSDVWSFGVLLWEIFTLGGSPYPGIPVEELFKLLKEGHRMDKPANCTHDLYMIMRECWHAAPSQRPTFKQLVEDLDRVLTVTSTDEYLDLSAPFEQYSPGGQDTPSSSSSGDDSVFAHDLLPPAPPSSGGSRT
# In short: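 Read-out is TR-FRET, with the 520 nm/495 nm emission ratio normalised to DMSO (max) and enzyme-free (min) controls. Enzyme was the FGFR3 cytoplasmic domain, residues 436-806. EDTA (10 mM) stopped the reaction, followed by 60 min at 22 °C before reading.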
# [3] = biological target: T3, FGFR1 (Homo sapiens, UniProt P11362); assay: FGFR1 kinase activity inhibition assay (LanthaScreen TR-FRET)
# T3 construct: cytoplasmic domain [398-822 (terminal) amino acids]; purchased Carna 08-133
# T3 sequence (P11362 398-822): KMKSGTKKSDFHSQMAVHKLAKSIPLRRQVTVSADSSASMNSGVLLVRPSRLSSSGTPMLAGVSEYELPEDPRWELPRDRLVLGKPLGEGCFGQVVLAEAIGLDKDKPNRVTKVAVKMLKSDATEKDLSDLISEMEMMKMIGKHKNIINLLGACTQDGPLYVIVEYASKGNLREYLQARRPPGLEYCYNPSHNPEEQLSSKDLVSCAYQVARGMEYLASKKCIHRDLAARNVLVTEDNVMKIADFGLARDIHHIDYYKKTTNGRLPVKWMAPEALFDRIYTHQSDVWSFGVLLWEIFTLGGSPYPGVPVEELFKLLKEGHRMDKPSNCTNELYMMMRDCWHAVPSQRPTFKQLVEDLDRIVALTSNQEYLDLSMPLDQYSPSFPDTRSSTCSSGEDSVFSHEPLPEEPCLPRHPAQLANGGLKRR
# In short: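 Emission ratio 520 nm/495 nm by TR-FRET after stopping reaction with 10 mM EDTA and 60 min incubation at 22°C. Inhibition normalized between no-enzyme (min) and DMSO (max) controls, then fitted to a four-parameter curve (Top, Bottom, HillSlope).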
# [4] = biological target: T4, FGFR2 (Homo sapiens, UniProt P21802); assay: FGFR2 kinase activity inhibition assay (LanthaScreen TR-FRET)
# T4 construct: FGFR2's cytoplasmic domain [399-821 (terminal) amino acids]; purchased Carna 08-134
# T4 sequence (P21802 399-821): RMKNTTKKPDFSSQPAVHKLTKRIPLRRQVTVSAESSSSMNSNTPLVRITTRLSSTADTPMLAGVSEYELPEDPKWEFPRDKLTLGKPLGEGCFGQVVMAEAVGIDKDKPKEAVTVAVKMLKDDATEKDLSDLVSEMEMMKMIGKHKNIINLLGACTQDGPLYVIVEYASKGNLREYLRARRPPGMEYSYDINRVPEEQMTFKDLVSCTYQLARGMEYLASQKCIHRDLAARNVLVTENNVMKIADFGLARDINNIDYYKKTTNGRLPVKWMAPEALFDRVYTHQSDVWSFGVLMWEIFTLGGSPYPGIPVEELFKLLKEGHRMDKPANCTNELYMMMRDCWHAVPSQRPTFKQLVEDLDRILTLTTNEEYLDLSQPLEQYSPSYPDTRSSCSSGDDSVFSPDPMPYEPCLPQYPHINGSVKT
# In short: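 GST-fused FGFR2 cytoplasmic domain (aa 399-821) was run as in the FGFR1 protocol: preincubated 10 min at 23 °C with compound (3-fold series from 1 µM) in 50 mM HEPES pH 7.5, 10 mM MgCl2, 4 mM DTT, 1% DMSO. A 2× mix of 28 nM fluorescein-poly GT/28 µM ATP then reacted 30 min. Tb-PY20/EDTA quench preceded the TR-FRET 520/495 read.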
# [5] = FGFR4 kinase, TR-FRET, read-out: IC50 (nM) FGFR4
# [6] = FGFR3 kinase, TR-FRET, read-out: IC50 (nM) FGFR3
# [7] = FGFR1 kinase, TR-FRET, read-out: IC50 (nM) FGFR1
# [8] = FGFR2 kinase, TR-FRET, read-out: IC50 (nM) FGFR2
# T1 sequence (P22455 460-802): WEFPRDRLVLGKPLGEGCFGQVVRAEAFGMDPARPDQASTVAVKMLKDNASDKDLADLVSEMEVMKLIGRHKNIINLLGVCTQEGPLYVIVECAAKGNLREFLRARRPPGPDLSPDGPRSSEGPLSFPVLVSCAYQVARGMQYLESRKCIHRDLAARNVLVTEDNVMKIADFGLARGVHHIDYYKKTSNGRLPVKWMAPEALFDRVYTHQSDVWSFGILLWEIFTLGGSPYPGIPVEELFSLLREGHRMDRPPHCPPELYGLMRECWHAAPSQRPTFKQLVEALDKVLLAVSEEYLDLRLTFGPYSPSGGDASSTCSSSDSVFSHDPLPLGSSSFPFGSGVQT
smiles,measurement,setting,value
"CC(Oc1ccc2[nH]nc(-c3cnn(C)c3)c2c1)c1cccc2nnccc12 (stereo not shown) [Example 119, 5-(1-((3-(1-methyl-1H-pyrazol-4-yl)-1H-indazol-5-yl)oxy)ethyl)cinnoline]",IC50,[1]; [5],10 to 100 nM
same,IC50,[2]; [6],1 to 10 nM
same,Selectivity (X) FGFR1/FGFR3,[2],B (B represents 20 ≤ multiple X<50)
same,Selectivity (X) FGFR2/FGFR3,[2],A (A represents 1 ≤ multiple X<20)
same,Selectivity (X) FGFR4/FGFR3,[2],B (B represents 20 ≤ multiple X<50)
same,IC50,[3]; [7],10 to 100 nM
same,IC50,[4]; [8],1 to 10 nM
"[2H]C([2H])([2H])C(Oc1ccc2[nH]nc(-c3cnn(C)c3)c2c1)c1c(C)ccc2ncccc12 (stereo not shown) [Example 122, 6-methyl-5-(1-((3-(1-methyl-1H-pyrazol-4-yl)-1H-indazol-5-yl)oxy)ethyl-2,2,2-d3)quinoline]",IC50,[1]; [5],10 to 100 nM
same,IC50,[2]; [6],< 1 nM
same,Selectivity (X) FGFR1/FGFR3,[2],B (B represents 20 ≤ multiple X<50)
same,Selectivity (X) FGFR2/FGFR3,[2],A (A represents 1 ≤ multiple X<20)
same,Selectivity (X) FGFR4/FGFR3,[2],B (B represents 20 ≤ multiple X<50)
same,IC50,[3]; [7],10 to 100 nM
same,IC50,[4]; [8],1 to 10 nM
"CC(Oc1ccc2[nH]nc(-c3cnn(C)c3)c2c1)c1cc(F)cc2ncccc12 (stereo not shown) [Example 124, 7-fluoro-5-(1-((3-(1-methyl-1H-pyrazol-4-yl)-1H-indazol-5-yl)oxy)ethyl)qu inoline]",IC50,[1]; [5],10 to 100 nM
same,IC50,[2]; [6],< 1 nM
same,Selectivity (X) FGFR1/FGFR3,[2],B (B represents 20 ≤ multiple X<50)
same,Selectivity (X) FGFR2/FGFR3,[2],A (A represents 1 ≤ multiple X<20)
same,Selectivity (X) FGFR4/FGFR3,[2],B (B represents 20 ≤ multiple X<50)
same,IC50,[3]; [7],10 to 100 nM
same,IC50,[4]; [8],1 to 10 nM
"Cc1ccnc2cccc(C(C)Oc3ccc4[nH]nc(-c5cnn(C)c5)c4c3)c12 (stereo not shown) [Example 126, 4-methyl-5-(1-((3-(1-methyl-1H-pyrazol-4-yl)-1H-indazol-5-yl)oxy)ethyl)qu inoline]",IC50,[1]; [5],> 100 nM
same,IC50,[2]; [6],1 to 10 nM
same,Selectivity (X) FGFR1/FGFR3,[2],B (B represents 20 ≤ multiple X<50)
same,Selectivity (X) FGFR2/FGFR3,[2],A (A represents 1 ≤ multiple X<20)
same,Selectivity (X) FGFR4/FGFR3,[2],C (C represents 50 ≤ multiple X<100)
same,IC50,[3]; [7],10 to 100 nM
same,IC50,[4]; [8],1 to 10 nM
"CC(Oc1ccc2[nH]nc(-c3cnn(C)c3)c2c1)c1cccn2nccc12 (stereo not shown) [Example 132, 3-(1-methyl-1H-pyrazol-4-yl)-5-(1-(pyrazolo[1,5-a]pyridin-4-yl)ethoxy)-1H-indazole]",IC50,[1]; [5],10 to 100 nM
same,IC50,[2]; [6],< 1 nM
same,Selectivity (X) FGFR1/FGFR3,[2],B (B represents 20 ≤ multiple X<50)
same,Selectivity (X) FGFR2/FGFR3,[2],A (A represents 1 ≤ multiple X<20)
same,Selectivity (X) FGFR4/FGFR3,[2],B (B represents 20 ≤ multiple X<50)
same,IC50,[3]; [7],10 to 100 nM
same,IC50,[4]; [8],1 to 10 nM
"Cc1cc(C(C)Oc2ccc3[nH]nc(-c4cnn(C)c4)c3c2)c2cccnc2c1 (stereo not shown) [Example 133, 7-methyl-5-(1-((3-(1-methyl-1H-pyrazol-4-yl)-1H-indazol-5-yl)oxy)ethyl)qu inoline]",IC50,[1]; [5],> 100 nM
same,IC50,[2]; [6],< 1 nM
same,Selectivity (X) FGFR1/FGFR3,[2],B (B represents 20 ≤ multiple X<50)
same,Selectivity (X) FGFR2/FGFR3,[2],A (A represents 1 ≤ multiple X<20)
same,Selectivity (X) FGFR4/FGFR3,[2],D (D represents 100 ≤ multiple X)
same,IC50,[3]; [7],10 to 100 nM
same,IC50,[4]; [8],1 to 10 nM
"CC(Oc1ccc2[nH]nc(-c3cnn(C)c3)c2c1)c1cc(Cl)cc2ncccc12 (stereo not shown) [Example 134, 7-chloro-5-(1-((3-(1-methyl-1H-pyrazol-4-yl)-1H-indazol-5-yl)oxy)ethyl)qu inoline]",IC50,[1]; [5],> 100 nM
same,IC50,[2]; [6],1 to 10 nM
same,Selectivity (X) FGFR1/FGFR3,[2],C (C represents 50 ≤ multiple X<100)
same,Selectivity (X) FGFR2/FGFR3,[2],A (A represents 1 ≤ multiple X<20)
same,Selectivity (X) FGFR4/FGFR3,[2],D (D represents 100 ≤ multiple X)
same,IC50,[3]; [7],> 100 nM
same,IC50,[4]; [8],10 to 100 nM
"CC(Nc1ccc2[nH]nc(-c3cnn(C)c3)c2c1)c1cccc2nccnc12 (stereo not shown) [Example 135, 3-(1-methyl-1H-pyrazol-4-yl)-N-(1-(quinoxalin-5-yl)ethyl)-1H-indazole-5-amine]",IC50,[1]; [5],10 to 100 nM
same,IC50,[2]; [6],1 to 10 nM
same,Selectivity (X) FGFR1/FGFR3,[2],B (B represents 20 ≤ multiple X<50)
same,Selectivity (X) FGFR2/FGFR3,[2],A (A represents 1 ≤ multiple X<20)
same,Selectivity (X) FGFR4/FGFR3,[2],B (B represents 20 ≤ multiple X<50)
same,IC50,[3]; [7],10 to 100 nM
same,IC50,[4]; [8],1 to 10 nM
"CCc1cc(C(C)Oc2ccc3[nH]nc(-c4cnn(C)c4)c3c2)c2nccnc2c1 (stereo not shown) [Example 138, 7-ethyl-5-(1-((3-(1-methyl-1H-pyrazol-4-yl)-1H-indazol-5-yl)oxy)ethyl)quinoxaline]",IC50,[1]; [5],10 to 100 nM
same,IC50,[2]; [6],< 1 nM
same,Selectivity (X) FGFR1/FGFR3,[2],C (C represents 50 ≤ multiple X<100)
same,Selectivity (X) FGFR2/FGFR3,[2],A (A represents 1 ≤ multiple X<20)
same,Selectivity (X) FGFR4/FGFR3,[2],C (C represents 50 ≤ multiple X<100)
same,IC50,[3]; [7],10 to 100 nM
same,IC50,[4]; [8],1 to 10 nM
"Cc1cc(C(C)Oc2ccc3[nH]nc(-c4cnn(C)c4)c3c2)c2nccnc2c1 (stereo not shown) [Example 140, 7-methyl-5-(1-((3-(1-methyl-1H-pyrazol-4-yl)-1H-indazol-5-yl)oxy)ethyl)qu inoxaline]",IC50,[1]; [5],10 to 100 nM
same,IC50,[2]; [6],< 1 nM
same,Selectivity (X) FGFR1/FGFR3,[2],A (A represents 1 ≤ multiple X<20)
same,Selectivity (X) FGFR2/FGFR3,[2],A (A represents 1 ≤ multiple X<20)
same,Selectivity (X) FGFR4/FGFR3,[2],B (B represents 20 ≤ multiple X<50)
same,IC50,[3]; [7],1 to 10 nM
same,IC50,[4]; [8],1 to 10 nM
"CC(Oc1ccc2[nH]nc(-c3cnn(C)c3)c2c1)c1cc(F)cc2nccnc12 (stereo not shown) [Example 142, 7-fluoro-5-(1-((3-(1-methyl-1H-pyrazol-4-yl)-1H-indazol-5-yl)oxy)ethyl)qu inoxaline]",IC50,[1]; [5],10 to 100 nM
same,IC50,[2]; [6],< 1 nM
same,Selectivity (X) FGFR1/FGFR3,[2],A (A represents 1 ≤ multiple X<20)
same,Selectivity (X) FGFR2/FGFR3,[2],A (A represents 1 ≤ multiple X<20)
same,Selectivity (X) FGFR4/FGFR3,[2],B (B represents 20 ≤ multiple X<50)
same,IC50,[3]; [7],1 to 10 nM
same,IC50,[4]; [8],1 to 10 nM
"Cc1ccn2nccc2c1C(C)Oc1ccc2[nH]nc(-c3cnn(C)c3)c2c1 (stereo not shown) [Example 155, 3-(1-methyl-1H-pyrazol-4-yl)-5-(1-(5-methylpyrazolo [1,5-a]pyridin-4-yl)ethoxy)-1H-indazole]",IC50,[1]; [5],10 to 100 nM
same,IC50,[2]; [6],< 1 nM
same,Selectivity (X) FGFR1/FGFR3,[2],B (B represents 20 ≤ multiple X<50)
same,Selectivity (X) FGFR2/FGFR3,[2],A (A represents 1 ≤ multiple X<20)
same,Selectivity (X) FGFR4/FGFR3,[2],B (B represents 20 ≤ multiple X<50)
same,IC50,[3]; [7],10 to 100 nM
same,IC50,[4]; [8],1 to 10 nM
"CC(Oc1ccc2[nH]nc(-c3cnn(C)c3)c2c1)c1c(CO)ccc2ncccc12 (stereo not shown) [Example 156, (5-(1-((3-(1-methyl-1H-pyrazol-4-yl)-1H-indazol-5-yl)oxy)ethyl)quinolin-6-yl)m ethano]",IC50,[1],10 to 100 nM
same,IC50,[2],1 to 10 nM
same,Selectivity (X) FGFR1/FGFR3,[2],B (B represents 20 ≤ multiple X<50)
same,Selectivity (X) FGFR2/FGFR3,[2],A (A represents 1 ≤ multiple X<20)
same,Selectivity (X) FGFR4/FGFR3,[2],A (A represents 1 ≤ multiple X<20)
same,IC50,[3],10 to 100 nM
same,IC50,[4],1 to 10 nM
